According to patent publication US7667052B2 (Eisai R&D Management Co., Ltd., priority 2003, dated 2010):

What follows are compounds tested on transcription from VEGF promoter (assay: VEGF transcription-suppressing activity, VEGF-PLAP reporter in U251/1-8 cell). Conditions: Homo sapiens, U-251; U251/1-8 cell, PLAP activity, low oxygen 18 hours; read-out: IC50 values of VEGF transcription-suppressing activity (range given).
Format: cell-based
Excerpt: In order to prepare reporter system reflecting transcription from VEGF promoter, VEGF promoter sequence was cloned, and inserted in secretory alkali phosphatase (PLAP) vector to construct reporter vector.
In order to obtain the promoter region of human VEGF, VEGF genome was cloned from phage library. PCR primers having the sequences described in Sequence Numbers 1 and 2 were designed based on VEGF cDNA (GenBank accession number: X62568) and a fragment having about 340 bp was obtained by carrying out PCR. Human genome phage library (Human genomic library, Clontech Co.) was screened using this as a probe to obtain pUC18-VEGFA containing about 5.4 kb of VEGF 5′ flanking region. The pUC18-VEGFA was cleaved by KpnI/NheI, VEGF promoter region of about 2.3 kb obtained was inserted in the multi cloning site KpnI/NheI of secretory alkali phosphatase (PLAP) vector (Goto et al, Mol. Pharmacol., 49, 860-873, 1996), and thus, VEGF-PLAP vector was constructed.
The above-mentioned VEGF-PLAP vector was introduced in the U251 cell cultured in the DULBECCO-modified eagle medium (DMEM; manufactured by SIGMA Co., Ltd.) containing 10% fetal calf serum, and cultured in the presence of 1 mg/ml G418 (Merck Co.) to establish G418 resistant stable clone (U251/1-8 cell).
It was confirmed that U251/1-8 cell secreted PLAP under low oxygen (2% O2 incubator) in the same manner as in the report (Cell. Mol. Biol. Res. 40, 35-39, 1994) and was a reporter system reflecting the transcription from VEGF promoter. The screening of the compound suppressing VEGF production which was induced by low oxygen stimulation was carried out below using the clone.
In order to remove the influence of alkaline phosphates in serum, U251/1-8 cell was rinsed twice with the adequate amount of PBS (Phosphate buffered saline), diluted in the DMEM medium containing 10% of serum in which alkaline phosphates was inactivated by the treatment of 60° C. for 20 min., and dispensed in 96-well plates by 4×10^4 cells/180 μl.
After culturing at 37° C. overnight in a CO2 incubator (5% CO2), 20 μL of the above-mentioned incubation solution containing the test compound diluted with 3-fold succession was added, and then they were incubated in a low oxygen ([…]) incubator for 18 hours. With respect to the PLAP activity in the culture supernatants, 10 μl of the supernatants was added to 50 μl of 0.28 M Na2CO3—NaHCO3 buffer solution (pH 10.0, 8.0 mM MgSO4), and finally 50 μl of alkaline phosphatase substrate (LUMISTEIN, Genomescience Co.) was added. After reacting for one hour, the alkaline phosphatase activity of the PLAP was measured by detecting the chemical luminescence by a micro plate reader (Perkin-Elmer Co.).
The PLAP activity under usual oxygen was set as 0%, the PLAP activity of cell which was treated under low oxygen was set as 100%, and the concentration suppressing the PLAP activity by 50% was set as the IC50 value of PLAP.

Row | SMILES | IC50 [nM]
1 | CCC(OC(C)=O)C(C)C1OC1CC(C)/C=C/C=C(\C)C1OC(=O)/C=C\CCC(C)(O)C(OC(C)=O)/C=C/C1C (centres unmarked) [B43-1, (2Z,8E,12E,14E)-7,21-Diacetoxy-6-hydroxy-6,10,12,16,20-pentamethyl-18,19-epoxytricosa-8,12,14-trien-11-olide] | 0.5 to 100
2 | CCC(O)C(C)C1OC1CC(C)/C=C/C=C(\C)C1OC(=O)/C=C\CCC(C)(O)C(OC(C)=O)/C=C/C1C (centres unmarked) [B43-2, (2Z,8E,12E,14E)-7-acetoxy-6,21-dihydroxy-6,10,12,16,20-pentamethyl-18,19-epoxytricosa-2,8,12,14-tetraen-11-olide] | 0.5 to 100
3 | CCC(O)C(C)C1OC1CC(C)/C=C/C=C(\C)C1OC(=O)CC(O)CCC(C)(O)C(OC(N)=O)/C=C/C1C (centres unmarked) [B44, (8E,12E,14E)-7-Carbamoyloxy-3,6,21-trihydroxy-6,10,12,16,20-pentamethyl-18,19-epoxytricosa-8,12,14-trien-11-olide] | 0.5 to 100
4 | CCC(O)C(C)C1OC1CC(C)/C=C/C=C(\C)C1OC(=O)CC(O)CCC(C)(O)C(OC(=O)NC)/C=C/C1C (centres unmarked) [B45, (8E,12E,14E)-3,6,21-Trihydroxy-6,10,12,16,20-pentamethyl-7-N-methylcarbamoyloxy-18,19-epoxytricosa-8,12,14-trien-11-olide] | 0.5 to 100
5 | CCC(O)C(C)C1OC1CC(C)/C=C/C=C(\C)C1OC(=O)CC(O)CCC(C)(O)C(OC(=O)N(C)C)/C=C/C1C (centres unmarked) [B46, (8E,12E,14E)-3,6,21-Trihydroxy-6,10,12,16,20-pentamethyl-7-N,N-dimethylcarbamoyloxy-18,19-epoxytricosa-8,12,14-trien-11-olide] | 0.5 to 100
6 | CCC(O)C(C)C1OC1CC(C)/C=C/C=C(\C)C1OC(=O)CC(O)CCC(C)(O)C(OC(=O)NCCc2ccccn2)/C=C/C1C (centres unmarked) [B47, (8E,12E,14E)-3,6,21-Trihydroxy-6,10,12,16,20-pentamethyl-7-N-(2-(2-pyridyl)ethyl)carbamoyloxy-18,19-epoxytricosa-8,12,14-trien-11-olide] | 0.5 to 100
7 | CCC(O)C(C)C1OC1CC(C)/C=C/C=C(\C)C1OC(=O)CC(O)CCC(C)(O)C(OC(=O)N2CCC(O)CC2)/C=C/C1C (centres unmarked) [B48, (8E,12E,14E)-3,6,21-Trihydroxy-7-((4-hydroxypiperidin-1-yl)carbonyl)oxy-6,10,12,16,20-pentamethyl-18,19-epoxytricosa-8,12,14-trien-11-olide] | 0.5 to 100
8 | CCC(O)C(C)C1OC1CC(C)/C=C/C=C(\C)C1OC(=O)CC(O)CCC(C)(O)C(OC(=O)N2CCOCC2)/C=C/C1C (centres unmarked) [B49, (8E,12E,14E)-3,6,21-Trihydroxy-6,10,12,16,20-pentamethyl-7-((morpholin-4-yl)carbonyl)oxy-18,19-epoxytricosa-8,12,14-trien-11-olide] | 0.5 to 100
9 | CCC(O)C(C)C1OC1CC(C)/C=C/C=C(\C)C1OC(=O)CC(O)CCC(C)(O)C(OC(=O)N2CCN(C)CC2)/C=C/C1C (centres unmarked) [B50, (8E,12E,14E)-3,6,21-Trihydroxy-6,10,12,16,20-pentamethyl-7-((4-methylpiperazin-1-yl)carbonyl)oxy-18,19-epoxytricosa-8,12,14-trien-11-olide] | 0.5 to 100
10 | CCC(O)C(C)C1OC1CC(C)/C=C/C=C(\C)C1OC(=O)CC(O)CCC(C)(O)C(OC(=O)N2CCN(C(C)=O)CC2)/C=C/C1C (centres unmarked) [B51, (8E,12E,14E)-7-((4-Acetylpiperazin-1-yl)carbonyl)oxy-3,6,21-trihydroxy-6,10,12,16,20-pentamethyl-18,19-epoxytricosa-8,12,14-trien-11-olide] | 0.5 to 100
11 | CCC(O)C(C)C1OC1CC(C)/C=C/C=C(\C)C1OC(=O)CC(O)CCC(C)(O)C(OC(=O)N2CCNCC2)/C=C/C1C (centres unmarked) [B52, (8E,12E,14E)-3,6,21-Trihydroxy-6,10,12,16,20-pentamethyl-7-((piperazin-1-yl)carbonyl)oxy-18,19-epoxytricosa-8,12,14-trien-11-olide] | 0.5 to 100
